Target: thrombin (Homo sapiens, UniProt P00734)
Assay: standard in vitro assays of thrombin inhibitory activity and selectivity
Assay type: biochemical
Conditions: standard in vitro assays designed to measure inhibitory activity and selectivity toward thrombin versus other proteases

In the case of “BnSO2-7Lac—G—R(.TFA)(CO))—Gly—OEt [16-5]”, the thrombin inhibitory activity is reported as “thrombin inhibitory activity”.
